Values quoted from earlier work as cited in patent US20060159724A1, “Nutritional supplement for the management of weight” (priority 2000, published 2006).
Like-named read-outs stand apart in the source and are kept apart here.

What was measured:
[1] = area under glycemic response curve, 2-hour period after 50 g carbohydrate, divided by standard (white bread or glucose)
[2] = first 6-week period, no dietary restrictions

N[C@@H](Cc1c[nH]c2ccc(O)cc12)C(=O)O [5-HTP, 5-hydroxytryptophan]
decrease in carbohydrate intake (obese subjects; [2]): about 50% | subjects with early satiety (obese subjects; [2]): 100% | weight loss (obese subjects; obese subjects, 900 mg 5-HTP three times a day 30 minutes before meals, two 6-week periods, p<0.02 vs control arm): 5% | subjects with early satiety (obese subjects; second 6-week period, energy-restricted diet of 1,200 kcal): 90%

O=C(CO)[C@@H](O)[C@H](O)[C@H](O)CO [Fructose, fructose]
glycemic index (GI) [1]: 32
